US20050043262A1, “Novel specific inhibitor of the cyclin kinase inhibitor p21Waf1/Cip1 and methods of using the inhibitor” (priority 2000, published 2005)

What was measured:
[1] = tested on: A10 VSM cells; test: Cell proliferation by counting adherent cells; type: cell-based, rat; conditions: after 18 hours of PDGF incubation
From the text: Cell culture, DNA synthesis, and proliferation assays: Cultures of both A10 and A7r5 rat aortic VSM cells were obtained from American Type Culture Collection (Rockville Md.). Bovine aortic smooth muscle cells were supplied by Martha O'Donnell (O'Donnell and Owen, 1986 Proc Natl. Acad. Sci.US.A., 83, p. 6132-6136). All of the cell lines were maintained as described (Weiss et al., 1998 Am. J. Physiol., 274, p. C1521-C1529) and were used between passages 15 and 25. The cells were growth-arrested by placing them in serum-free quiescence medium, exposed to growth factors as indicated, and [^3H]thymidine incorporation assessed as previously described (Weiss and Nuccitelli, 1992a J. Biol. Chem., 267, p. 5608-5613). Cell proliferation was assessed by counting of adherent cells on 4 representative fields under 100× magnification in each of 3 wells per experimental condition.
Antisense techniques were employed to examine the dependence of G1-phase progression on p21^Waf1/Cip1 in the VSM cell lines (Crooke, 1993 Antisense research and applications. Boca Raton, CRC.). […] DNA synthesis was assessed by [^3H]-thymidine incorporation and is expressed as mean ± s.e.m. of three wells per data point. […] After 18 hours of PDGF incubation, the cells were counted by examining representative fields at 100× magnification. The average number of cells in 4 random fields in each well was determined.

[2] = tested on: cyclin D1/cdk 4; test: Cyclin D1 immunoprecipitation / cdk 4 immunoblot in A10 VSM cells; type: cell-based, rat; conditions: PDGF-BB 30 ng/ml, all times
Procedure: (§1) Cells were transfected with p21^Waf1/Cip1 antisense (SEQ. ID NO.:1) or sense oligodeoxynucleotide (SEQ. ID NO.:2), allowed to grow overnight in serum-free media. After overnight incubation in serum-free medium, the cells were stimulated with PDGF-BB (30 ng/ml) for the times indicated. The cells were subsequently immunoprecipitated with either cyclin D1 or cyclin E and immunoblotted with cdk 4 or cdk 2, respectively.

[3] = tested on: cyclin E/cdk 2; test: Cyclin E immunoprecipitation / cdk 2 immunoblot in A10 VSM cells; type: cell-based, rat; conditions: PDGF-BB 30 ng/ml
Procedure: as §1

[4] = tested on: cyclinE/cdk2; test: Cyclin E immunoprecipitation / cdk2 immunoblot in A431 cells; type: cell-based, human; conditions: 10 min to 6 hours of PDGF exposure
From the text: Cyclin/cdk interactions occur after growth factor stimulation and serve to integrate such responses with the CKIs and transmit them to the Rb/E2F systems, which leads to mitogenic signal transmission. The cyclin D1/cdk 4 interaction occurs early after growth factor stimulation (reviewed in (Arellano and Moreno, 1997 Int. J. Biochem. Cell Biol., 29, p. 559-573)), while the cyclinE/cdk2 interaction occurs late in G1 and is thought to have a role in triggering the actual onset of DNA replication after the cells have passed the restriction point (reviewed in (Sherr and Roberts, 1995: Genes Dev., 9, p. 1149-1163)). A431 cells were transfected with p21^Waf1/Cip1 antisense (SEQ. ID NO.:1) or sense (SEQ. ID NO.:2) oligodeoxynucleotide, allowed to grow overnight in serum-free media, and then stimulated for various times with PDGF-BB. The cells were subsequently immunoprecipitated with either cyclinD1 or cyclinE and immunoblotted with cdk4 or cdk2, respectively. A lysate sample, showing the mobility of the immunoprecipitated cdks, confirmed the identity of the cdks. A431 cells were transfected with antisense (SEQ. ID NO.:1) or sense p21^Waf1/Cip1 (SEQ. ID NO.:2) oligonucleotides. […]

[5] = tested on: VSM cells; test: Apoptosis by Hoechst 33258 staining in VSM cells; type: cell-based, rat; conditions: 24 hours after transfection
Procedure: FIG. 20A-D show how the antisense oligonucleotide to p21 induces VSM cell apoptosis, as described in Example III, infra. VSM cells were grown on glass cover slips and transfected with (A,B) random sequence control oligonucleotide to p21 or (C,D) antisense oligonucleotide. 24 hours later, the cells were fixed and stained in situ with Hoechst 33258. Representative microscopic fields were photographed under (A,C) visual or (B,D) UV light at 40×.
Apoptosis assays: Cells were grown on collagen-coated coverslips, and transfected as stated above. 16-24 hours after transfection, cells were exposed to 12 Gy dose of γ-irradiation or 0.5 μM wortmannin. 24 hours later, cells were fixed in 3.7% formaldehyde (diluted in PBS) for 10 minutes. The cells were rinsed with cold PBS and permeabilized using 0.1% Triton X-100 (diluted in deionized water) for 5 minutes. Rinsed again with PBS, the cells on the coverslips were submerged in Hoechst Staining solution (3.0 μl in 37.5 ml deionized water) for 5 minutes. Cells were given a final three rinses with cold PBS before being mounted in polyvinyl alcohol mounting medium. Cell nuclei were visualized using a ZEISS WL Microscope and photographed under 40×.
As another measure of apoptosis, transfected cells fixed and stained with Hoechst 33258 were examined.

## 5′-GACATCACCAGGATCGGACAT-3′
[1]
  cell number / cell proliferation: parallel the alterations in DNA synthesis
[1]; listed as antisense p21^Waf1/Cip1 oligodeoxynucleotide
  cell number / cell proliferation: inhibited
[2]
  association of cyclin D1 and cdk 4: marked decrease
[3]
  cyclin E/cdk 2 interaction: no change
[4]
  cyclinE/cdk2 association: no effect
[5]
  apoptotic changes (Hoechst 33258): extensive apoptotic changes
